From patent publication US20260248780A1, “PHARMACEUTICAL COMPOSITIONS” (Birdie Biopharmaceuticals, Inc., priority 2017, published 2026)

How the values were obtained:
Format in all cases: physicochemical
[1] = HPLC purity of clear samples after kinetic solubility test; conditions: clear sample after kinetic solubility test, FeSSIF
Procedure: After being centrifuged and separated using 0.45 μm Nylon filter, filtrates were collected for HPLC and pH test, and wet cakes for XRPD characterization. If clear solutions were obtained after 24 hours, accurate concentration and purity were measured for the solutions.

[2] = Polymorph screening of freebase Type A (solid form by XRPD)
[3] = Physical and chemical (solid-state) stability under 25° C./60% RH and 40° C./75% RH for one week; conditions: for Form change: XRPD
Procedure: Physicochemical stability of Type A (807919-05-A) was evaluated under 25° C./60% RH and 40° C./75% RH for one week, and 80° C. (closed) for 24 hours.

[4] = Hygroscopicity: DVS isotherm at 25° C.; conditions: for hygroscopicity: DVS at 25° C.; for water uptake up to 80% RH: 25° C./80% RH
Procedure: DVS isotherm plot was collected at 25° C. to investigate the solid form stability as a function of humidity. […] For the possible hydrate/solvate di-HCl salt Type A, solids were equilibrated at ambient humidity (~30% RH) before testing. DVS was measured via a SMS (Surface Measurement Systems) DVS Intrinsic. The relative humidity at 25° C. were calibrated against deliquescence point of LiCl, Mg(NO3)2 and KCl. DVS isotherm plot was collected at 25° C. to investigate the solid form stability as a function of humidity for anhydrate Type A (807919-05-A). Solids were pre-dried at 0% RH to remove the unbounded solvent or water before started. […] DVS was measured via a SMS (Surface Measurement Systems) DVS Intrinsic. The relative humidity at 25° C. were calibrated against deliquescence point of LiCl, Mg(NO3)2 and KCl.

CCOCc1nc2c(N)nc3ccccc3c2n1CC(C)(C)O [Freebase Type A, 1-[4-amino-2-(ethoxymethyl)imidazo-[4,5-c]-quinolin-1-yl]-2-methylpropan-2-ol]
Clear: Solid Form ([2]; anti-solvent addition: solvent DCM, anti-solvent Anisole) | Solid Form ([2]; anti-solvent addition: solvent IPA, anti-solvent H2O, no solid at 5° C., then evaporation) | Solid Form ([2]; liquid vapor diffusion, RT 6 days: solvent Ethyl lactate, anti-solvent MTBE) | Solid Form ([2]; liquid vapor diffusion, RT 6 days: solvent IBA, anti-solvent n-heptane)
Type A + Sample H: Solid Form ([2]; anti-solvent addition: solvent Ethyl lactate, anti-solvent n-heptane)
Type A + B: Solid Form ([2]; anti-solvent addition: solvent 2-MeTHF, anti-solvent n-heptane) | Solid Form ([2]; anti-solvent addition: solvent CHCl3, anti-solvent n-heptane) | Solid Form ([2]; anti-solvent addition: solvent THF, anti-solvent n-heptane) | Solid Form ([2]; liquid vapor diffusion, RT 6 days: solvent CHCl3, anti-solvent Toluene) | Solid Form ([2]; slow cooling, then −20° C.: MIBK) | Solid Form ([2]; slow cooling, then −20° C.: THF/toluene (1:3)) | Solid Form ([2]; slow evaporation at RT: ACN) | Solid Form ([2]; slow evaporation at RT: CHCl3/n-heptane (1:1))
99.9%: HPLC Purity % of Initial [1]
0.1%: Water Uptake at 25° C./80% RH ([4]; DVS, 25° C., up to 80% RH) | water uptake up to 80% RH ([4]; DVS, listed as Type A) | water uptake up to 80% RH ([4]; DVS, listed as freebase Type A)
Type D: Solid Form ([2]; liquid vapor diffusion, RT 6 days: solvent DMAc, anti-solvent MTBE)
Type A, C: Crystal Form ([2]; screening summary: Slurry at RT/50° C., 31 experiments) | Crystal Form ([2]; screening summary: Solid Vapor Diffusion, 13 experiments)
99.28 Area %: HPLC Purity Area % ([3]; 40° C./75% RH)
Type A~G, sample H: Crystal Form ([2]; screening summary: Total, 100 experiments)
Type G: Solid Form ([2]; anti-solvent addition: solvent EtOH, anti-solvent Anisole, no solid at 5° C., then evaporation) | Solid Form ([2]; slow cooling, then −20° C.: Anisole, limited solid, then evaporation at RT)
99.25 Area %: HPLC Purity Area % [1]
Type E: Solid Form ([2]; liquid vapor diffusion, RT 6 days: solvent NMP, anti-solvent MTBE)
Type C: Solid Form ([2]; slurry at 50° C., about 3 days: 1,4-dioxane) | Solid Form ([2]; solid vapor diffusion, RT 7 days: 1,4-dioxane)
100.0%: HPLC Purity % of Initial ([3]; 40° C./75% RH)
No: Form change ([3]; 25° C./60% RH) | Form change ([3]; 40° C./75% RH) | Form Change Post DVS Test ([4]; XRPD after DVS)
non-hygroscopic: hygroscopicity ([4]; listed as Type A) | hygroscopicity ([4]; listed as freebase Type A)
Type B: Solid Form ([2]; anti-solvent addition: solvent Acetone, anti-solvent MTBE, no solid at 5° C., then evaporation) | Solid Form ([2]; anti-solvent addition: solvent IBA, anti-solvent Toluene, no solid at 5° C., then evaporation) | Solid Form ([2]; liquid vapor diffusion, RT 6 days: solvent THF, anti-solvent H2O) | Solid Form ([2]; polymer induced crystallization: MeOH, Polymer mixture B) | Solid Form ([2]; slow cooling, then −20° C.: CHCl3/MTBE (1:3)) | Solid Form ([2]; slow evaporation at RT: 2-MeTHF/n-heptane (1:1)) | Solid Form ([2]; slow evaporation at RT: EtOAc)
Type A, B: Crystal Form ([2]; screening summary: Polymer-induced Crystallization, 6 experiments) | Crystal Form ([2]; screening summary: Slow Evaporation, 10 experiments)
no form change: Form Change Post DVS Test ([4]; XRPD pre and post DVS, listed as Type A) | Form Change Post DVS Test ([4]; XRPD pre and post DVS, listed as freebase Type A)
99.8%: HPLC Purity % of Initial ([3]; 25° C./60% RH)
Type F: Solid Form ([2]; slow cooling, then −20° C.: MEK)
Type A, B, F, G: Crystal Form ([2]; screening summary: Slow Cooling, 10 experiments)
Type A: Solid Form ([2]; anti-solvent addition: solvent 1,4-dioxane, anti-solvent Toluene, solids after stirring at 5° C. for 2 days) | Solid Form ([2]; anti-solvent addition: solvent Acetone, anti-solvent H2O, no solid at 5° C., then evaporation) | Solid Form ([2]; anti-solvent addition: solvent CHCl3, anti-solvent MTBE) | Solid Form ([2]; anti-solvent addition: solvent DCM, anti-solvent Toluene) | Solid Form ([2]; anti-solvent addition: solvent DMAc, anti-solvent H2O) | Solid Form ([2]; anti-solvent addition: solvent DMSO, anti-solvent H2O) | Solid Form ([2]; anti-solvent addition: solvent EtOH, anti-solvent n-heptane) | Solid Form ([2]; anti-solvent addition: solvent MeOH, anti-solvent H2O) | Solid Form ([2]; anti-solvent addition: solvent MeOH, anti-solvent MTBE, solids after stirring at 5° C. for 2 days) | Solid Form ([2]; anti-solvent addition: solvent NMP, anti-solvent H2O) | Solid Form ([2]; anti-solvent addition: solvent THF, anti-solvent H2O, no solid at 5° C., then evaporation) | Solid Form ([2]; liquid vapor diffusion, RT 6 days: solvent 2-MeTHF, anti-solvent Toluene) | Solid Form ([2]; liquid vapor diffusion, RT 6 days: solvent Acetone, anti-solvent n-heptane) | Solid Form ([2]; liquid vapor diffusion, RT 6 days: solvent DCM, anti-solvent n-heptane) | Solid Form ([2]; liquid vapor diffusion, RT 6 days: solvent EtOH, anti-solvent H2O) | Solid Form ([2]; polymer induced crystallization: Acetone, Polymer mixture A) | Solid Form ([2]; polymer induced crystallization: Acetone, Polymer mixture B) | Solid Form ([2]; polymer induced crystallization: MeOH, Polymer mixture A) | Solid Form ([2]; polymer induced crystallization: THF, Polymer mixture A) | Solid Form ([2]; polymer induced crystallization: THF, Polymer mixture B) | Solid Form ([2]; slow cooling, then −20° C.: ACN) | Solid Form ([2]; slow cooling, then −20° C.: Acetone/H2O (1:3)) | Solid Form ([2]; slow cooling, then −20° C.: EtOAc) | Solid Form ([2]; slow cooling, then −20° C.: EtOH/n-heptane (1:3)) | Solid Form ([2]; slow cooling, then −20° C.: IPAc) | Solid Form ([2]; slow evaporation at RT: Acetone) | Solid Form ([2]; slow evaporation at RT: DCM) | Solid Form ([2]; slow evaporation at RT: EtOH/H2O (1:1)) | Solid Form ([2]; slow evaporation at RT: IPA) | Solid Form ([2]; slow evaporation at RT: MeOH) | Solid Form ([2]; slow evaporation at RT: THF) | Solid Form ([2]; slurry at 50° C., about 3 days: 2-MeTHF) | Solid Form ([2]; slurry at 50° C., about 3 days: ACN) | Solid Form ([2]; slurry at 50° C., about 3 days: Anisole) | Solid Form ([2]; slurry at 50° C., about 3 days: CHCl3/toluene (1:5)) | Solid Form ([2]; slurry at 50° C., about 3 days: EtOAc) | Solid Form ([2]; slurry at 50° C., about 3 days: H2O) | Solid Form ([2]; slurry at 50° C., about 3 days: IBA) | Solid Form ([2]; slurry at 50° C., about 3 days: IPA) | Solid Form ([2]; slurry at 50° C., about 3 days: IPAc) | Solid Form ([2]; slurry at 50° C., about 3 days: MEK) | Solid Form ([2]; slurry at 50° C., about 3 days: MIBK) | Solid Form ([2]; slurry at 50° C., about 3 days: MeOH/H2O (1:5)) | Solid Form ([2]; slurry at 50° C., about 3 days: THF/n-heptane (1:5)) | Solid Form ([2]; slurry at RT, 3 days: 1,4-dioxane) | Solid Form ([2]; slurry at RT, 3 days: 2-MeTHF) | Solid Form ([2]; slurry at RT, 3 days: ACN) | Solid Form ([2]; slurry at RT, 3 days: Anisole) | Solid Form ([2]; slurry at RT, 3 days: DCM/toluene (1:3)) | Solid Form ([2]; slurry at RT, 3 days: EtOAc) | Solid Form ([2]; slurry at RT, 3 days: IBA) | Solid Form ([2]; slurry at RT, 3 days: IPA) | Solid Form ([2]; slurry at RT, 3 days: IPAc) | Solid Form ([2]; slurry at RT, 3 days: MEK) | Solid Form ([2]; slurry at RT, 3 days: MIBK) | Solid Form ([2]; slurry at RT, 3 days: MeOH/H2O (1:3)) | Solid Form ([2]; slurry at RT, 3 days: THF/n-heptane (1:3)) | Solid Form ([2]; slurry at RT, 3 days: acetone/H2O (aw = 0.2)) | Solid Form ([2]; slurry at RT, 3 days: acetone/H2O (aw = 0.4)) | Solid Form ([2]; slurry at RT, 3 days: acetone/H2O (aw = 0.6)) | Solid Form ([2]; slurry at RT, 3 days: acetone/H2O (aw = 0.8)) | Solid Form ([2]; solid vapor diffusion, RT 7 days: ACN) | Solid Form ([2]; solid vapor diffusion, RT 7 days: Acetone) | Solid Form ([2]; solid vapor diffusion, RT 7 days: CHCl3) | Solid Form ([2]; solid vapor diffusion, RT 7 days: DCM) | Solid Form ([2]; solid vapor diffusion, RT 7 days: DMF) | Solid Form ([2]; solid vapor diffusion, RT 7 days: DMSO) | Solid Form ([2]; solid vapor diffusion, RT 7 days: EtOAc) | Solid Form ([2]; solid vapor diffusion, RT 7 days: EtOH) | Solid Form ([2]; solid vapor diffusion, RT 7 days: H2O) | Solid Form ([2]; solid vapor diffusion, RT 7 days: IPA) | Solid Form ([2]; solid vapor diffusion, RT 7 days: MeOH) | Solid Form ([2]; solid vapor diffusion, RT 7 days: THF)
Type A, B, G, sample H: Crystal Form ([2]; screening summary: Anti-solvent Addition, 20 experiments)
99.15 Area %: HPLC Purity Area % ([3]; 25° C./60% RH)
Type A, B, D, E: Crystal Form ([2]; screening summary: Solution Vapor Diffusion, 10 experiments)
